Experimental data published in publication PMC7838546, “A Thermostable, Modified Cathelicidin-Derived Peptide With Enhanced Membrane-Active Activity Against Salmonella enterica serovar Typhimurium” (Frontiers in Microbiology, 2021).
Ends that are not written are not given here.

Tests used:
Assay in all cases: MIC/MBC, broth microdilution and colony count
Assay type in all cases: cell-based, Salmonella enterica serovar Typhimurium
[1] = test system: S. enterica serovar Typhimurium H1-015 (clinical isolate); conditions: H1-015, boot swab, resistant Amp, intermediate Cp, broth microdilution, 37°C, 24 h
Method: (§1) Salmonella enterica serovar Typhimurium ATCC 13311, 24 drug-resistant foodborne and eleven drug-resistant human borne S. enterica serovar Typhimurium and 4,5,12:i:- isolates (Table 1) were used as test microorganisms. They were previously isolated for molecular characterization in 2014 and kindly provided by Dr. Soraya Chaturongakul (Mahidol University, Thailand) ([Huoy et al., 2014]). All bacteria were cultured in Tryptic Soy Broth (TSB) and incubated at 37°C for 18 h. Mueller Hinton Broth (MHB) was then used to wash and rinse the bacteria. The bacterial suspensions were then diluted to obtain concentrations of 10^7 CFU/ml for inoculations.
(§2) A modified version of the National Committee for Clinical Laboratory Standards (NCCLS) broth microdilution method ([Steinberg et al., 1997]) was used to determine the minimum inhibitory concentrations (MICs) of peptide and compared to that of nisin. Fifty microliters of two-fold serial dilutions of each peptide [0.98–250 μg/ml in 0.01% (v/v) acetic acid and 0.2% (w/v) bovine serum albumin (BSA, Sigma-Aldrich, MO, United States)], were incubated with 50 μl of bacterial suspensions (approximately 10^7 CFU/ml) at 37°C for 24 h in a shaking incubator. MICs were taken as the lowest concentration of peptide at which growth was inhibited as observed by visual inspection. Bacterial cultures without peptides and uncultured broth were used as positive and negative controls, respectively. Minimal bactericidal concentrations (MBCs) were determined using a colony count assay ([Clinical Laboratory Standards Institute [CLSI], 2015]). Fifty microliters of samples from each non-turbid well in the MIC determination experiment was plated on Mueller Hinton Agar (MHA) and colonies were observed after overnight incubation at 37°C. MBCs were designated as the least concentration showing no colony growth on the plate. All of experiments were performed in triplicate.

[2] = test system: S. enterica serovar Typhimurium H1-041 (clinical isolate); conditions: H1-041, stool, resistant Amp, Ctx, C, T, SxT, intermediate Amc, Cp, NA, broth microdilution, 37°C, 24 h
Method: as §1, §2

[3] = test system: S. enterica serovar Typhimurium H1-062 (clinical isolate); conditions: H1-062, stool, resistant Amc, Amp, Ctx, C, NA, T, intermediate Cp, broth microdilution, 37°C, 24 h
Method: as §1, §2

Measured: MIC

Nisin: authorized food preservative peptide, binds lipid II and forms membrane pores (ITSISLCTPGCKTGALMGCNMKTATCHCSIHVSK; cysteine pairing not given here; also: lantibiotic nisin-A; UniProt P13068 24-57, looked up)
>1000 µg/mL: all assays above
